Reference: US20200277571A1, “METHOD FOR AMPLIFYING CONE PHOTORECEPTORS OR ROD PHOTORECEPTORS USING DORSALIZATION SIGNAL TRANSMITTER OR VENTRALIZATION SIGNAL TRANSMITTER” (RIKEN, priority 2017, published 2020)

Key:
[1] = tested on: cone photoreceptor precursor and rod photoreceptor precursor in retinal tissue produced from human ES cells; assay: Immunostaining for GFP (CRX::Venus), RXR-γ and NRL of retinal tissue, day 191-192, image analysis; type: cell-based; details: for proportion of rod photoreceptor precursor (Rod-like; NRL-positive) / proportion of cone photoreceptor precursor (Cone; RXR-γ-positive and NRL-negative): day 191-192, 100 nM LDN193189 or 100 nM SAG day 22 to day 100; for proportion of rod photoreceptor precursor (Rod-like; NRL-positive) / proportion of cone photoreceptor precursor (Cone; RXR-γ-positive and NRL-negative) / proportion of NRL-positive rod photoreceptor precursor among photoreceptor precursors versus Control group: 0.15 nM BMP4, 500 nM Cyclopamine-KAAD; for proportion of rod photoreceptor precursor (Rod-like; NRL-positive): Control (NUC) about 12.8%; for proportion of cone photoreceptor precursor (Cone; RXR-γ-positive and NRL-negative): Control (NUC) about 22.7%; for proportion of NRL-positive rod photoreceptor precursor among photoreceptor precursors versus Control group: 100 nM LDN193189, 100 nM SAG day 22 to day 100; for proportion of RXR-γ-positive cone photoreceptor precursor among photoreceptor precursors versus Control group: 500 nM Cyclopamine-KAAD or 100 nM SAG day 22 to day 100
Procedure: (§1) A cell aggregate containing a retinal tissue was prepared by the method described in “Kuwahara et al. Nat Commun 2015, 19(6), 6286-” after modification in part. That is, the aforementioned cultured ES cells were individually dispersed using TrypLE Express (Invitrogen), and the individually dispersed human ES cells were suspended in 100 μL of a serum-free medium in a cell non-adhesive 96 well plate (SUMILON spheroid plate, SUMITOMO BAKELITE CO., LTD.) at 9×10^3 cells per well to allow rapid formation of aggregates, after which they were cultured at 37° C., 5% CO2. As the serum-free medium therefor, a serum-free medium obtained by adding 10% KSR, 450 μM 1-monothioglycerol, 1× Chemically defined lipid concentrate, 5 mg/mL BSA, 20 μM Y27632 to a 1:1 mixture of F-12 medium and IMDM medium was used. At 6 days after the start of suspension culture, BMP4 at a final concentration of 1.5 nM was added and suspension culture was continued. A half amount of the culture medium in the well was exchanged with the above-mentioned medium not supplemented with a BMP signal transduction pathway agonist every 3 or 4 days. A cell aggregate containing a retinal tissue at day 18 from the start of suspension culture was cultured in suspension in a serum-free medium (DMEM/F12 medium supplemented with 1% N2 supplement) containing 3 μM CHIR99021 and 5 μM SU5402 for 4 days, namely, up to day 22 from the start of suspension culture. Thereafter, suspension culture of the cell aggregate containing the retinal tissue was continued until it was appropriately used for analysis and the like. As the culture medium during this period, serum-containing media shown in the following to [3] were used and the cell aggregate was cultured under 5% CO2 conditions.
(§2) [1] day 22 to day 38 from the start of suspension culture; DMEM/F12 medium supplemented with 10% fetal calf serum, 1% N2 supplement, and 100 μM taurine. day 38 to day 60 from the start of suspension culture; a 1:3 mixed medium of DMEM/F12 medium supplemented with 10% fetal calf serum, 1% N2 supplement, and 100 μM taurine, and Neurobasal medium supplemented with 10% fetal calf serum, 2% B27 supplement, and 100 μM taurine. after day 60 from the start of suspension culture; Neurobasal medium supplemented with 10% fetal calf serum, 2% B27 supplement, and 100 μM taurine.
[1] Control group (FIG. 3a, f, k, p); according to the method described in Example 1, cultured without addition up to day 191 from the start of suspension culture. [2]+BMP group (FIG. 3b, g, 1, q); 0.15 nM BMP4 was added from day 22 to day 100 from the start of suspension culture and cultured up to day 191 from the start of suspension culture. From day 100 to day 191 from the start of suspension culture, cultured in medium described in Example 1. [3]+Cyclopamine-KAAD group (FIG. 3c, h, m, r); 500 nM Cyclopamine-KAAD was added from day 22 to day 100 from the start of suspension culture, and cultured up to day 191 from the start of suspension culture. From day 100 to day 191 from the start of suspension culture, cultured in medium described in Example 1. [4]+LDN193189 group (FIG. 3d, i, n, s); 100 nM LDN193189 was added from day 22 to day 100 from the start of suspension culture, and cultured up to day 191 from the start of suspension culture. From day 100 to day 191 from the start of suspension culture, cultured in medium described in Example 1. [5]+SAG group (FIG. 3e, j, o, t); 100 nM SAG was added from day 22 to day 100 from the start of suspension culture, and cultured up to day 191 from the start of suspension culture. From day 100 to day 191 from the start of suspension culture, cultured in medium described in Example 1. […]

[2] = tested on: photoreceptor precursor and cone photoreceptor precursor in retinal tissue produced from human ES cells; assay: Immunostaining for CRX and TRβ2 and CRX::Venus fluorescence observation of retinal tissue, day 70-75 of suspension culture; type: cell-based; details: for CRX-positive and TRβ2-positive cells (cone photoreceptor precursor; proportion to DAPI-positive cells): day 70-75, Control (NUC) about 6.8%; for CRX-positive and TRβ2-positive cells (cone photoreceptor precursor; proportion to DAPI-positive cells) / CRX-positive cells (proportion to DAPI-positive cells) / green fluorescence shown by knocked-in CRX::Venus (order of groups) / cone photoreceptor precursor that emerges in initial stage of development (CRX-positive, TRβ2-expressing) versus Control group / CRX-positive cells (photoreceptor precursors) versus retinal tissue of the Control group: 0.15 nM BMP4, 500 nM Cyclopamine-KAAD; for CRX-positive and TRβ2-positive cells (cone photoreceptor precursor; proportion to DAPI-positive cells) / CRX-positive cells (proportion to DAPI-positive cells): 100 nM LDN193189 or 100 nM SAG from day 22; for CRX-positive cells (proportion to DAPI-positive cells): day 70-75 from start of suspension culture, Control (NUC) about 10.6%; for green fluorescence shown by knocked-in CRX::Venus (order of groups): day 70, fluorescence microscope; for green fluorescence shown by knocked-in CRX::Venus (order of groups) / cone photoreceptor precursor that emerges in initial stage of development (CRX-positive, TRβ2-expressing) versus Control group / CRX-positive cells (photoreceptor precursors) versus retinal tissue of the Control group: 100 nM LDN193189, 100 nM SAG from day 22; for cone photoreceptor precursor that emerges in initial stage of development (CRX-positive, TRβ2-expressing) versus Control group: day 70 or 75; for CRX-positive cells (photoreceptor precursors) versus retinal tissue of the Control group / CRX::Venus-positive cells (GFP immunostaining) versus Control (NUC) group: day 75; for CRX-positive cells (photoreceptor precursors) versus retinal tissue of the Control group: immunostained sections; for CRX::Venus-positive cells (GFP immunostaining) versus Control (NUC) group: along with change of ALDH1A3 region, 0.15 nM BMP4, 100 nM LDN193189, 100 nM SAG from day 22
Procedure: CRX::Venus knock-in human ES cells (derived from KhES-1; Nakano, T. et al. Cell Stem Cell 2012, 10(6), 771-785) were cultured according to the methods described in “Ueno, M. et al. PNAS 2006, 103(25), 9554-9559” “Watanabe, K. et al. Nat Biotech 2007, 25, 681-686”. As a medium for culturing human ES cells, DMEM/F12 medium (Sigma) supplemented with 20% KSR (KnockOut™ Serum Replacement; Invitrogen), 0.1 mM 2-mercaptoethanol, 2 mM L-glutamine, ix non-essential amino acid, 7.5 ng/mL bFGF was used.
as §1, §2
[1] Control group (FIG. 2a, f, k, p); according to the method described in Example 1, culture was performed up to day 70 or day 75 from the start of suspension culture and without addition. [2]+BMP group (FIG. 2b, g, 1, q); 0.15 nM BMP4 was added from day 22 from the start of suspension culture to completion of suspension culture, and cultured up to day 70 or day 75 from the start of suspension culture. [3]+Cyclopamine-KAAD group (FIG. 2c, h, m, r); 500 nM Cyclopamine-KAAD was added from day 22 from the start of suspension culture to completion of the suspension culture, and cultured up to day 70 or day 75 from the start of suspension culture. [4]+LDN193189 group (FIG. 2d, i, n, s); 100 nM LDN193189 was added from day 22 from the start of suspension culture to completion of the suspension culture, and cultured up to day 70 or day 75 from the start of suspension culture. [5]+SAG group (FIG. 2e, j, o, t); 100 nM SAG was added from day 22 from the start of suspension culture to completion of the suspension culture, and cultured up to day 70 or day 75 from the start of suspension culture. […]

CC1=C2C[C@H]3[C@@H](CC=C4CC(=O)CC[C@@]43C)[C@@H]2CC[C@]12O[C@@H]1C[C@H](C)CN(CCNC(=O)CCCCCNC(=O)CCc3ccccc3)[C@H]1[C@H]2C [Cyclopamine-KAAD]
proportion of rod photoreceptor precursor (Rod-like; NRL-positive) [1]: about 11.5% | proportion of cone photoreceptor precursor (Cone; RXR-γ-positive and NRL-negative) [1]: about 30.2% | proportion of NRL-positive rod photoreceptor precursor among photoreceptor precursors versus Control group ([1]; day 191): decreased somewhat | CRX::Venus-positive photoreceptor precursor ([1]; day 191, 500 nM Cyclopamine-KAAD day 22 to day 100): can be increased | proportion of RXR-γ-positive cone photoreceptor precursor among photoreceptor precursors versus Control group ([1]; day 191): can increase | CRX-positive and TRβ2-positive cells (cone photoreceptor precursor; proportion to DAPI-positive cells) [2]: ~8.1% | CRX-positive cells (proportion to DAPI-positive cells) [2]: ~14.1% | green fluorescence shown by knocked-in CRX::Venus (order of groups) [2]: observed more in the order of +BMP4 group, +Cyclopamine-KAAD group, Control group, +LDN193189 group, +SAG group | cone photoreceptor precursor that emerges in initial stage of development (CRX-positive, TRβ2-expressing) versus Control group [2]: observed more | CRX-positive cells (photoreceptor precursors) versus retinal tissue of the Control group [2]: Slightly more

BMP4: BMP protein; BMP signal transduction pathway agonist used as dorsalization signal transmitter
proportion of rod photoreceptor precursor (Rod-like; NRL-positive) [1]: about 6.1% | proportion of cone photoreceptor precursor (Cone; RXR-γ-positive and NRL-negative) [1]: about 31.3% | proportion of NRL-positive rod photoreceptor precursor among photoreceptor precursors versus Control group ([1]; day 191): reduced | CRX-positive and TRβ2-positive cells (cone photoreceptor precursor; proportion to DAPI-positive cells) [2]: about 10.8% | CRX-positive cells (proportion to DAPI-positive cells) [2]: about 17.0% | green fluorescence shown by knocked-in CRX::Venus (order of groups) [2]: observed more in the order of +BMP4 group, +Cyclopamine-KAAD group, Control group, +LDN193189 group, +SAG group | cone photoreceptor precursor that emerges in initial stage of development (CRX-positive, TRβ2-expressing) versus Control group [2]: observed more | CRX::Venus-positive cells (GFP immunostaining) versus Control (NUC) group [2]: increased | CRX-positive cells (photoreceptor precursors) versus retinal tissue of the Control group [2]: clearly higher

CNC1CCC(N(Cc2cccc(-c3ccncc3)c2)C(=O)c2sc3ccccc3c2Cl)CC1 (centres unmarked) [SAG]
proportion of rod photoreceptor precursor (Rod-like; NRL-positive) [1]: about 17.2% | proportion of cone photoreceptor precursor (Cone; RXR-γ-positive and NRL-negative) [1]: about 12.6% | proportion of NRL-positive rod photoreceptor precursor among photoreceptor precursors versus Control group ([1]; day 191): increased | proportion of RXR-γ-positive cone photoreceptor precursor among photoreceptor precursors versus Control group ([1]; day 191): low | CRX-positive and TRβ2-positive cells (cone photoreceptor precursor; proportion to DAPI-positive cells) [2]: ~3.2% | CRX-positive cells (proportion to DAPI-positive cells) [2]: ~5.1% | green fluorescence shown by knocked-in CRX::Venus (order of groups) [2]: observed more in the order of +BMP4 group, +Cyclopamine-KAAD group, Control group, +LDN193189 group, +SAG group | cone photoreceptor precursor that emerges in initial stage of development (CRX-positive, TRβ2-expressing) versus Control group [2]: less | CRX::Venus-positive cells (GFP immunostaining) versus Control (NUC) group [2]: decreased | CRX-positive cells (photoreceptor precursors) versus retinal tissue of the Control group [2]: lesser

c1ccc2c(-c3cnn4cc(-c5ccc(N6CCNCC6)cc5)cnc34)ccnc2c1 [LDN193189, 4-[6-(4-piperazin-1-ylphenyl)pyrazolo[1,5-a]pyrimidin-3-yl]quinoline]
proportion of rod photoreceptor precursor (Rod-like; NRL-positive) [1]: about 14.0% | proportion of cone photoreceptor precursor (Cone; RXR-γ-positive and NRL-negative) [1]: about 20.0% | proportion of NRL-positive rod photoreceptor precursor among photoreceptor precursors versus Control group ([1]; day 191): increased | CRX-positive and TRβ2-positive cells (cone photoreceptor precursor; proportion to DAPI-positive cells) [2]: ~4.5% | CRX-positive cells (proportion to DAPI-positive cells) [2]: about 6.8% | green fluorescence shown by knocked-in CRX::Venus (order of groups) [2]: observed more in the order of +BMP4 group, +Cyclopamine-KAAD group, Control group, +LDN193189 group, +SAG group | cone photoreceptor precursor that emerges in initial stage of development (CRX-positive, TRβ2-expressing) versus Control group [2]: less | CRX::Venus-positive cells (GFP immunostaining) versus Control (NUC) group [2]: decreased | CRX-positive cells (photoreceptor precursors) versus retinal tissue of the Control group [2]: less
